How the values were obtained:
BALB/c mice (wild-type) = experiment: Serum cytokines after oral administration of imidazoquinolines; assay type: in vivo, mouse; conditions: after two hours, N=3
Protocol: (§1) Before examining the reactivity of TLR7 knockout mice to imiquimod and R-848 which are imidazoquinoline group compound, firstly imiquimod or R-848 were administered to BALB/c mice (wild-type) orally at the predetermined concentration, respectively, the concentration of IFN-α, TNF-α and IL-12 in serum were measured after two hours. […] The data is shown as a mean value+/−S.D. (N=3). Similarly, the ability of these compounds to activate immune cells via TLR was examined using imiquimod or R-848 respectively. The peritoneal macrophages (5×10^4 cells) from wild-type mice and MyD88 knockout mice prepared in example 2, were stimulated by imiquimod or R-848, in the presence or absence of 30 U/ml of IFN-γ, and the concentration of TNF-α and IL-12 produced by peritoneal macrophages were measured by ELISA. […] The data is shown as a mean value+/−S.D. (N=3).

[1] = tested on: peritoneal macrophages from wild-type mice; experiment: Cytokine production by peritoneal macrophages (ELISA), wild-type; assay type: cell-based, mouse; conditions: 5×10^4 cells, presence or absence of 30 U/ml IFN-γ
Protocol: (§2) 2 ml of 4% thioglycollic acid medium (DIFCO) were injected into the intraperitoneals of the wild-type mice, TLR7 knockout mice (TLR7KO), MyD88 knockout mice (MyD88KO) and TLR9 knockout mice (TLR9KO), respectively, three days later, peritoneal exudate cells were isolated from intraperitoneal of each mouse, these cells were cultured in PRMI 1640 medium (GIBCO) added with 10% fatal bovine serum (GIBCO) at 37° C. for two hours, nonadherent cells were […] by washing with Hank's buffered salt solution (HBBS; GIBCO) at iced temperature, and the adherent cells were used as peritoneal macrophages in following experiment. Total RNA (10 μg) obtained from macrophages derived from the wild-type mice (+/Y) and TLR7 knockout mouse (TLR7KO) was electrophoresed, transferred onto a nylon membrane, and hybridized with a part of TLR7 DNA, and this membrane was rehybridized with β-actin probe. It was examined by the Northern blotting. From the results shown in FIG. 3, the expression of TLR7mRNA could not be found in TLR7 knockout mice.
(§3) In addition, the measurement of cytokine generated from peritoneal macrophages was executed as follows; […] peritoneal macrophages of 2×10^5 well or 5×10^4 well were cultured in 96-well plate respectively, and after stimulated with the above-mentioned reagents for 24 h, concentration of TNF-α, IL-12p40, IL-6 and/or IFN-α were measured by ELISA according to the manual.
as §1

[2] = tested on: peritoneal macrophages from MyD88 knockout mice; experiment: Cytokine production by peritoneal macrophages (ELISA), MyD88 knockout; assay type: cell-based, mouse; conditions: 5×10^4 cells, presence or absence of 30 U/ml IFN-γ
Protocol: as §2, §3, §1

[3] = tested on: peritoneal macrophages derived from TLR7 knockout mice (TLR7KO); experiment: Cytokine production by peritoneal macrophages (ELISA), TLR7 knockout; assay type: cell-based, mouse; conditions: 5×10^4 cells, presence or absence of 30 U/ml IFN-γ, 24 h culture
Protocol: as §2, §3
Next, the peritoneal macrophages (5×10^4 cells) derived from TLR7 knockout mice (TLR7KO), TLR9 knockout mice (TLR9KO) and wild-type mice were stimulated with CpGDNA 1668 (phosphorothioate 1688). D19, AAC30, natural 1688 (phosphodiester 1688). genomic DNA derived from Escherichia coli, or genomic DNA derived from Micrococcus deikticus at of a predetermined concentration in the presence (+) or absence (−) of 30 U/ml of IPN-γ, and the concentration of IL-12p40 produced by production of peritoneal macrophages contained in cultured supernatant was measured by ELISA after 24 h of culture. The results are shown in FIG. 6 (in the figure, marks of * show detection limits and below). […]

[4] = tested on: splenic cells derived from wild-type mice; experiment: Splenic cell proliferation ([3H] thymidine incorporation), wild-type; assay type: cell-based, mouse; conditions: 5×10^4 cells, cultured 48 h
Protocol: (§4) As activated phenotypes were proliferated and expressed by stimulating B-lymphocytes with imidazoquinoline group compounds, the proliferation of splenic cells was examined (Cell. Immunol. 203, 55-62, 2000; J. Immunol. 165, 5552-5557, 2000). Splenic cells (5×10^4 cells) derived from TLR7 knockout mice (TLR7KO) and wild-type mice were stimulated with R-848 and CpGDNA at a predetermined concentration, cultured for 48 h (cultured by adding [^3H] thymidine for last eight hours), and measured the level of thymidine incorporation using a β scintillation counter. A mean value+/−S.D., obtained from representative experiment among triplicate experiments is shown.

[5] = tested on: splenic cells derived from TLR7 knockout mice (TLR7KO); experiment: Splenic cell proliferation ([3H] thymidine incorporation), TLR7 knockout; assay type: cell-based, mouse; conditions: 5×10^4 cells, cultured 48 h
Protocol: as §4

[6] = tested on: BMDC derived from wild-type mice; experiment: Surface CD40, CD80, CD86 expression on bone marrow dendritic cells (flow cytometry), wild-type; assay type: cell-based, mouse; conditions: stimulated 24 h
Protocol: (§5) The reactivity to R-848 in dendritic cells derived from bone marrow (BMDC) derived from TLR7 knockout mice (TLR7KO) and the wild-type mice was examined. The bone marrow cells obtained from TLR7 knockout mice and wild-type mice were cultured for six days in RPMI-1640 medium supplemented with 10% fatal bovine serum and 10 ng/ml of GM-CSF (mouse granulocyte/macrophage colony stimulating factor). The obtained mouse undifferentiated dendritic cells were stimulated with R-848 or CpGDNA for 24 h, the cells were stained with biotinylated antibody to CD40, CD80 and CD86, and phycoerythrin (PE)-associated streptavidin was detected, which was analyzed by automated-cell analysing system (FACSCalibur). The results of examination of the expression of the molecules of CD40, CD80 and CD86 onto the surface of cells by flow cytometry are shown in FIG. 11. Similar to the case with CpGDNA, when BMDC derived from wild-type mice was stimulated with R-848, upregulation of CD40, CD80 and CD86 expression was induced. On the contrary, when BMDC derived from TLR7 knockout mice (TLR7KO) was stimulated with R-848, the expression of these molecules on cell surface was not enhanced.

[7] = tested on: BMDC derived from TLR7 knockout mice (TLR7KO); experiment: Surface CD40, CD80, CD86 expression on bone marrow dendritic cells (flow cytometry), TLR7 knockout; assay type: cell-based, mouse; conditions: stimulated 24 h
Protocol: as §5

[8] = tested on: macrophages derived from wild-type mice; experiment: Intracellular signalling (NF-κB EMSA, JNK and IRAK in vitro kinase assay) in macrophages, wild-type; assay type: cell-based, mouse; conditions: 100 nM R-848 or 1.0 μM CpGDNA 1668
Protocol: (§6) Next, the activation of intracellular signaling cascade to an antiviral immune-modulator was examined. Peritoneal macrophages (2×10^6 cells) from TLR7 knockout mice (TLR7KO) and wild-type mice respectively stimulated with thioglycollic acid, were stimulated with 100 nM of R-848 or 1.0 μM of CpGDNA 1668 (CpG) for a certain period of time, nucleoprotein was extracted, the extract obtained with the specific probe including NF-κB associated-site was incubated, electrophoresed, visualized by autoradiography, and NF-κB activation was examined as DNA-associated protein by electrophoretic mobility shift assay (EMSA). In FIG. 12, an arrow indicates induced NF-κB complexes, and an arrow head indicates a free probe.
(§7) The functional role of TLR7 in transactivation of NF-κB reporter gene induced by R-848 was examined. HEK293 cells were transiently cotransfected with TLR7 expression plasmids derived from human, and luciferase activity was measured before and after R-848 stimulation. The peritoneal macrophages derived from TLR7 knockout mice (TLR7KO) and wild-type mice stimulated with thioglycollic acid were stimulated with 100 nm of R-848 or 1.0 μM of phosphothioate modified CpGDNA 1668 (CpG), all cell lysate were prepared, immunoprecipated with anti-JNK antibody, and JNK activity was examined by In Vitro Kinase Assay using GST-c-Jun fusion protein as a substrate. The same lysate was blotted with anti-JNK antibody. Moreover, the lysate was immunoprecipated with anti-IRAK, and kinase activity of IRAK was examined by In Vitro Kinase Assay. The same lysate was blotted with anti-IRAK antibody. […] It is important to activate TLR7-MyD88-dependent signal pathway for the effect of imidazoquinoline in vivo.

[9] = tested on: macrophages derived from TLR7 knockout mice; experiment: Intracellular signalling (NF-κB EMSA, JNK and IRAK in vitro kinase assay) in macrophages, TLR7 knockout; assay type: cell-based, mouse; conditions: TLR7KO macrophages, 100 nM R-848
Protocol: as §6, §7

TLR7 = target: T1, TLR7 (Homo sapiens, UniProt Q9NYK1); experiment: NF-κB reporter gene (luciferase) in HEK293 cells transfected with TLR7 expression plasmids; assay type: cell-based; conditions: HEK293 cells transiently cotransfected with human TLR7 expression plasmids, before and after R-848 stimulation
T1 construct: expressed in transfected cells; host or cells: HEK293
T1 sequence (Q9NYK1 27-1049): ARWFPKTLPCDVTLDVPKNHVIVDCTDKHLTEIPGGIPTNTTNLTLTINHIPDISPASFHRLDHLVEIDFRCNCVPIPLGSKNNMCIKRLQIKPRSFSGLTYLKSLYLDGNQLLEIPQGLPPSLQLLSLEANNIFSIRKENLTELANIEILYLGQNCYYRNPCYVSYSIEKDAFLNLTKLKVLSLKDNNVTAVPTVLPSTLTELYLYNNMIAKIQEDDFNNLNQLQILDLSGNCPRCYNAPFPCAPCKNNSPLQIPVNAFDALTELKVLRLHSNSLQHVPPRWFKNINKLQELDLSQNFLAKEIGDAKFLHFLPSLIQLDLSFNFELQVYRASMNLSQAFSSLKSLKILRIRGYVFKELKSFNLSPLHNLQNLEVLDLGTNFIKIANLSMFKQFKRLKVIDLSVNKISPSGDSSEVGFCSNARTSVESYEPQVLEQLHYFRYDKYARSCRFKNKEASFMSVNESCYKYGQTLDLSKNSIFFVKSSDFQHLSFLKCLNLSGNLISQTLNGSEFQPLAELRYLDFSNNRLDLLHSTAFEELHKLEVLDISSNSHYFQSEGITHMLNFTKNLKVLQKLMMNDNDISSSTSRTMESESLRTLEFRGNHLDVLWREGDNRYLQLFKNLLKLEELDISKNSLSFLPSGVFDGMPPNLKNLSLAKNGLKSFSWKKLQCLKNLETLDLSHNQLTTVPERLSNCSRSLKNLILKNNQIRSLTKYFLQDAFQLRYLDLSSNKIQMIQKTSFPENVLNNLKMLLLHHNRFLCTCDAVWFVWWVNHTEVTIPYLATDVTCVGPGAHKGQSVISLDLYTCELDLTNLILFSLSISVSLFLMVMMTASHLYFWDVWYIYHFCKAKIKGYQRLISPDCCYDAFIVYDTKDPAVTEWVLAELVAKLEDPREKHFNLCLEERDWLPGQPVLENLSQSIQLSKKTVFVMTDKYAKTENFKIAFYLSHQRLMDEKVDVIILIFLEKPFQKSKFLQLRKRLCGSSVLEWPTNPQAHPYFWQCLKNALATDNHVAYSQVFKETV
Protocol: as §7

wild-type mice = experiment: Serum cytokines after intraperitoneal R-848, wild-type mice; assay type: in vivo, mouse; conditions: 50 nmol intraperitoneally, ELISA
Protocol: (§8) It was examined in vivo whether TLR7 was involved in a response to R-848. The wild-type mice, MyD88 knockout mice or TLR7 knockout mice were injected intraperitoneally with 50 nmol of R-848, the sera were harvested after a predetermined period of time, and the concentration of IFN-α, TNF-α and IL12p40 in sera was determined by ELISA. […] On the contrary, the increment of these cytokines was not observed in TLR7 knockout mice.

TLR7 knockout mice = experiment: Serum cytokines after intraperitoneal R-848, TLR7 knockout mice; assay type: in vivo, mouse; conditions: 50 nmol intraperitoneally, ELISA
Protocol: as §8

MyD88 knockout mice = experiment: Serum cytokines after intraperitoneal R-848, MyD88 knockout mice; assay type: in vivo, mouse; conditions: 50 nmol intraperitoneally, ELISA
Protocol: as §8

genital herpes = conditions: actual treatment; cited from earlier work
animal model = conditions: cited from earlier work
various types of cells = conditions: cited from earlier work
NF-κB and MAP kinase = conditions: cited from earlier work
[10] = tested on: type 2 herpes simplex virus; conditions: cited from earlier work
cytomegalovirus = conditions: cited from earlier work
human papilloma virus = conditions: actual treatment; cited from earlier work

CCOCc1nc2c(N)nc3ccccc3c2n1CC(C)(C)O [R-848, resiquimod]
concentration of IFN-α in serum (BALB/c mice (wild-type)): increased depending on applied dose | concentration of IL-12 in serum (BALB/c mice (wild-type)): increased depending on applied dose | concentration of TNF-α in serum (BALB/c mice (wild-type)): increased depending on applied dose | IL-12 produced by peritoneal macrophages [1]: in large amount | TNF-α produced by peritoneal macrophages [1]: in large amount | IL-12 produced by peritoneal macrophages [2]: hardly produced any cytokines | TNF-α produced by peritoneal macrophages [2]: hardly produced any cytokines | production of IL-6 by peritoneal macrophages [3]: not confirmed | production of IL-12p40 by peritoneal macrophages [3]: not confirmed | production of TNF-α by peritoneal macrophages [3]: not confirmed | proliferation of splenic cells ([3H] thymidine incorporation) [4]: showed proliferation depending on concentration | proliferation of splenic cells ([3H] thymidine incorporation) [5]: did not show proliferation | CD40 expression on cell surface [6]: upregulation | CD80 expression on cell surface [6]: upregulation | CD86 expression on cell surface [6]: upregulation | CD40 expression on cell surface [7]: not enhanced | CD80 expression on cell surface [7]: not enhanced | CD86 expression on cell surface [7]: not enhanced | activation of c-Jun N terminal kinase (JNK) [8]: induced | enhanced DNA avidity of NF-κB transcription (EMSA) [8]: induced | phosphorylation of IRAK [8]: induced | activation of c-Jun N terminal kinase (JNK) [9]: completely destructed | enhanced DNA avidity of NF-κB transcription (EMSA) [9]: completely destructed | phosphorylation of IRAK [9]: completely destructed | NF-κB-dependent promoter (luciferase activity) (TLR7): promoted | concentration of IFN-α in sera (wild-type mice): increased significantly | concentration of IL12p40 in sera (wild-type mice): increased significantly | concentration of TNF-α in sera (wild-type mice): increased significantly | increment of IFN-α in sera (TLR7 knockout mice): not observed | increment of IL12p40 in sera (TLR7 knockout mice): not observed | increment of TNF-α in sera (TLR7 knockout mice): not observed | concentration of IFN-α in sera (MyD88 knockout mice): did not show any reactivity | concentration of IL12p40 in sera (MyD88 knockout mice): did not show any reactivity | concentration of TNF-α in sera (MyD88 knockout mice): did not show any reactivity | treating genital herpes (genital herpes): effective

CC(C)Cn1cnc2c(N)nc3ccccc3c21 [imiquimod]
concentration of IFN-α in serum (BALB/c mice (wild-type)): increased depending on applied dose | concentration of IL-12 in serum (BALB/c mice (wild-type)): increased depending on applied dose | concentration of TNF-α in serum (BALB/c mice (wild-type)): increased depending on applied dose | IL-12 produced by peritoneal macrophages [1]: in large amount | TNF-α produced by peritoneal macrophages [1]: in large amount | IL-12 produced by peritoneal macrophages [2]: hardly produced any cytokines | TNF-α produced by peritoneal macrophages [2]: hardly produced any cytokines | antitumor activity (animal model): antitumor activity | antivirus activity (animal model): shows antivirus activity | induction of cytokines such as IFN-α, IL-6 and IL-12 (various types of cells): inducing cytokines such as IFN-α, IL-6 and IL-12 | stimulation of NF-κB and MAP kinase (NF-κB and MAP kinase): stimulates | replication of type 2 herpes simplex virus [10]: inhibit the replication | replication of cytomegalovirus (cytomegalovirus): inhibit the replication | treating pudendal wart (condyloma acuminatum) caused by human papilloma virus (human papilloma virus): effective

— patent publication US7608750B2, “Nonhuman model animal unresponsive to immunopotentiating synthetic compound” (Japan Science and Technology Agency, priority 2001, dated 2009)
